Consider two molecules from patent publication US20070042020A1, “Composition for the treatment of dysfunctional energy metabolism syndrome” (priority 2003, published 2007).

The subject of this experiment is old Labrador Retriever dog that had difficulty in standing and walking. In words: Exercise ability (walking distance) of a dog under cofactor supplementation. It counts as in vivo. On the procedure: When L-carnitine, acetyl-L-carnitine, with added pantothenate at 0.4 mg/kg body weight were supplemented for one week, exercise ability increased to 2740 yards and, by three weeks, ability was 3807 yards. However, when pantothenate was eliminated for two weeks, exercise ability declined to 350 yards. Then when pantothenate was returned to the L-carnitine and acetyl-L-carnitine combination, his exercise capability returned to more than 3800 yards. This case illustrates the contribution of the various cofactors to physical activity.

For the molecule `CC(=O)O[C@H](CC(=O)[O-])C[N+](C)(C)C` [acetyl-L-carnitine], the “exercise ability (distance walked)” value (after two weeks of acetyl-L-carnitine at 4 mg/kg body weight and no L-carnitine) stood at 648 yards.
With `C[N+](C)(C)C[C@H](O)CC(=O)[O-]` [L-carnitine], the “distance it could walk” value (after one week of L-carnitine at 5 mg/kg body weight, 340 yards before) is given as 1240 yards.
